Results: ChEMBL document CHEMBL4190335, “Design of KDM4 Inhibitors with Antiproliferative Effects in Cancer Models” (ACS Med Chem Lett, 2017)
One block for each molecule: values may come before it. Calls of active or inactive are those of the source. The rule behind the calls is not given here.

How the values were obtained:
[1] = target: T1, Lysine-specific demethylase 4C (Homo sapiens, UniProt Q9H3R0); experiment: Inhibition of KDM4C (unknown origin) using biotinylated H3K9me3 peptide and alpha-ketoglutarate as substrate pretreated for 1 hr followed by substrate addition measured after 20 mins in presence of 0.02 mg/ml BSA by LANCE TR-FRET assay
T1 sequence (Q9H3R0 whole entry): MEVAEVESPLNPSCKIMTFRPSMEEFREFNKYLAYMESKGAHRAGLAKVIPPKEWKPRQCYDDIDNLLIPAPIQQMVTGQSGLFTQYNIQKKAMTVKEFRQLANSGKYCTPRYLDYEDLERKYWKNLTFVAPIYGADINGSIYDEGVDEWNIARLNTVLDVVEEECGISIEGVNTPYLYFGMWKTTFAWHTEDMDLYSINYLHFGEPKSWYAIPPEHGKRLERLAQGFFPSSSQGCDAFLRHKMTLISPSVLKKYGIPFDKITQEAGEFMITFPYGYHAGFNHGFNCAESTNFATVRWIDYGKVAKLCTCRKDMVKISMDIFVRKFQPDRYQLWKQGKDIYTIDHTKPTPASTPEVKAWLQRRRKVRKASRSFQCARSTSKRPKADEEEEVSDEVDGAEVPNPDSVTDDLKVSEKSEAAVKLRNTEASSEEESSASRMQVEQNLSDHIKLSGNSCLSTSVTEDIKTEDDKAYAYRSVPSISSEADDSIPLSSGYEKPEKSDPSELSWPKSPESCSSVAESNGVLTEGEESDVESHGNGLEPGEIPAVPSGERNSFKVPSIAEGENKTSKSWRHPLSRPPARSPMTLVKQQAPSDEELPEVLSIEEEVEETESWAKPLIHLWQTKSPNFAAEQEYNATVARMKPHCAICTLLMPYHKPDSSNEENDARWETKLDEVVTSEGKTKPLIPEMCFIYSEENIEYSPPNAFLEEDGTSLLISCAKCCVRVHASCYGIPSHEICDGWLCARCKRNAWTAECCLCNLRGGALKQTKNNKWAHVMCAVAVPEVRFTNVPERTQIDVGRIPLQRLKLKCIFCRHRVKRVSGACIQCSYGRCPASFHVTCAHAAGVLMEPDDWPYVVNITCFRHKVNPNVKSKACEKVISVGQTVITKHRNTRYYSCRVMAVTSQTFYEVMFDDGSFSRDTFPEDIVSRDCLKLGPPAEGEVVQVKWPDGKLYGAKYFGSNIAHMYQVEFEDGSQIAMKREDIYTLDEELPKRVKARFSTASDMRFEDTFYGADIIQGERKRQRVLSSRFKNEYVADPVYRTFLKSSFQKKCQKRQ

[2] = target: T2, Lysine-specific demethylase 2B (Homo sapiens, UniProt Q8NHM5); experiment: Inhibition of KDM2B (unknown origin) using biotinylated H3K36me2 peptide and alpha-ketoglutarate as substrate pretreated for 1 hr followed by substrate addition measured after 20 mins by LANCE TR-FRET assay
T2 sequence (Q8NHM5 whole entry): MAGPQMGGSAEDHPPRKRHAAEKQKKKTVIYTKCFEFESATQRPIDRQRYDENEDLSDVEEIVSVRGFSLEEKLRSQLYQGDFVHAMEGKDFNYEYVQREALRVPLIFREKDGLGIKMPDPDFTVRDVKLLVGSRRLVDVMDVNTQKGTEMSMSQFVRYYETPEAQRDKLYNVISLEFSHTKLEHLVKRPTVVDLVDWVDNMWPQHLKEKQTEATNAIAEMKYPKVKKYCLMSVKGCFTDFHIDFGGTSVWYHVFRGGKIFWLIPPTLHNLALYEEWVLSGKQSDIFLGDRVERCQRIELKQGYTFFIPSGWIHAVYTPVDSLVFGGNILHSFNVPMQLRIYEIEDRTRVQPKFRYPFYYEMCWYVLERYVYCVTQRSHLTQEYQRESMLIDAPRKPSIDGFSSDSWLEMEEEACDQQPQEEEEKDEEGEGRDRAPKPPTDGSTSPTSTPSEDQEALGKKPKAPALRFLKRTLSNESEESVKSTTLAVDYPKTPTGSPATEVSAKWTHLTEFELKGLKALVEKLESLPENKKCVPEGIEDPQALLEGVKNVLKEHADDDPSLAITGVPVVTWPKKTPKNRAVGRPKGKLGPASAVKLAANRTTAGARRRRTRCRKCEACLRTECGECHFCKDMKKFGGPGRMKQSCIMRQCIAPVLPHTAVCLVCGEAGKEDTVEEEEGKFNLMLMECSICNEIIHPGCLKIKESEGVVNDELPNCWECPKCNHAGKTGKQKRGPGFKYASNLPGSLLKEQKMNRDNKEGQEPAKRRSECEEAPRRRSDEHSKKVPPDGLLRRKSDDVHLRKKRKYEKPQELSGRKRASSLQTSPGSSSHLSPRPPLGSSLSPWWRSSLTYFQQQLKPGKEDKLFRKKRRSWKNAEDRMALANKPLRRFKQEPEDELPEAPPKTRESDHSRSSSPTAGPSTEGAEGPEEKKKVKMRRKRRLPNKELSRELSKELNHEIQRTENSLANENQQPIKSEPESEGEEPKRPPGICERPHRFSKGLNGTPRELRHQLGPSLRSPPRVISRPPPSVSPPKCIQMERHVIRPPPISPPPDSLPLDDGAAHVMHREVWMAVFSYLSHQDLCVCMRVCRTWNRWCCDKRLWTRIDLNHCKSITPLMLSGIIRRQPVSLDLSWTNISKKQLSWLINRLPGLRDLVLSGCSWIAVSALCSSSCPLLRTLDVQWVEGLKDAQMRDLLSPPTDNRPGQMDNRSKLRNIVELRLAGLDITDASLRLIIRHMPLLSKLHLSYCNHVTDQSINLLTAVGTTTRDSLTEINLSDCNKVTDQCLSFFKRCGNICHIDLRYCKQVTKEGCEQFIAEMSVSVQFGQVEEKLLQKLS

[3] = target: T3, Lysine-specific demethylase 3A (Homo sapiens, UniProt Q9Y4C1); experiment: Inhibition of KDM3A (unknown origin) using biotinylated H3K9me1 peptide and alpha-ketoglutarate as substrate measured after 20 mins by LANCE TR-FRET assay
T3 sequence (Q9Y4C1 whole entry): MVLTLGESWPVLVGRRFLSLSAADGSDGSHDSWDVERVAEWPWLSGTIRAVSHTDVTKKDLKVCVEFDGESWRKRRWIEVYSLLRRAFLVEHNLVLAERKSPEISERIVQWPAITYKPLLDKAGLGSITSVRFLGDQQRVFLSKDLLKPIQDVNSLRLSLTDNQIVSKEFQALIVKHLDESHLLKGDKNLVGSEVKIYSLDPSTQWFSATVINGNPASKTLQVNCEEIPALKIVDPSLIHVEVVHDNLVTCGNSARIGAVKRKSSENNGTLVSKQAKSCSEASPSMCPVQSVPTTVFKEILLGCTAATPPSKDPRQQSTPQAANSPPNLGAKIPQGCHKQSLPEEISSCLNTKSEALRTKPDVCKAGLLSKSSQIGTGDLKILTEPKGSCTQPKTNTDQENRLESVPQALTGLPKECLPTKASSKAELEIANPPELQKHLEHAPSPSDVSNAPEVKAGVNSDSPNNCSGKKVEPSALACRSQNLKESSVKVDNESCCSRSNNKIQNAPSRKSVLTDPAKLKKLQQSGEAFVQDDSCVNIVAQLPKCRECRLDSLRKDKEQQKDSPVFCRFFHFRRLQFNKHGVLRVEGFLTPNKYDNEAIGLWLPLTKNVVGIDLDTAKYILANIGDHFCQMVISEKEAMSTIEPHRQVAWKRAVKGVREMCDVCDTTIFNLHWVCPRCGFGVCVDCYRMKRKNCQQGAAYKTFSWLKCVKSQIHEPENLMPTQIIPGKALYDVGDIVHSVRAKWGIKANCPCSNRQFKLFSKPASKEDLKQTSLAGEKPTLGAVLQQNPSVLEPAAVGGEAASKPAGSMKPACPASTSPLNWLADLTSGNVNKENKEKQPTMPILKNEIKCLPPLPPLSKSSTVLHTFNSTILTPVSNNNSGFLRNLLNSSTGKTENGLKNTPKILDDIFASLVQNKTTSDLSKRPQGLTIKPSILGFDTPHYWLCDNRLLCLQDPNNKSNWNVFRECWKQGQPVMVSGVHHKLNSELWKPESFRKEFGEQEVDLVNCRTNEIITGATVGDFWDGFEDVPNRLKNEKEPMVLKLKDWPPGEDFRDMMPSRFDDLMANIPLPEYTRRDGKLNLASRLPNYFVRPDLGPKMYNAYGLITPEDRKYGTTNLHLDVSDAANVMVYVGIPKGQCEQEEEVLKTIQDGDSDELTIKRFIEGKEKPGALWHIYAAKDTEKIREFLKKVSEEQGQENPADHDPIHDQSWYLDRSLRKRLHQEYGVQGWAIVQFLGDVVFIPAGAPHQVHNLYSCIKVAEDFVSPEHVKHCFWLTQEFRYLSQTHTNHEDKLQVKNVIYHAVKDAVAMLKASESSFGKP

[4] = target: Lysine-specific demethylase 3B (Homo sapiens, UniProt Q7LBC6); experiment: Inhibition of KDM3B (unknown origin) using biotinylated H3K9me1 peptide and alpha-ketoglutarate as substrate measured after 20 mins by LANCE TR-FRET assay
Sequence of Lysine-specific demethylase 3B (Q7LBC6 whole entry): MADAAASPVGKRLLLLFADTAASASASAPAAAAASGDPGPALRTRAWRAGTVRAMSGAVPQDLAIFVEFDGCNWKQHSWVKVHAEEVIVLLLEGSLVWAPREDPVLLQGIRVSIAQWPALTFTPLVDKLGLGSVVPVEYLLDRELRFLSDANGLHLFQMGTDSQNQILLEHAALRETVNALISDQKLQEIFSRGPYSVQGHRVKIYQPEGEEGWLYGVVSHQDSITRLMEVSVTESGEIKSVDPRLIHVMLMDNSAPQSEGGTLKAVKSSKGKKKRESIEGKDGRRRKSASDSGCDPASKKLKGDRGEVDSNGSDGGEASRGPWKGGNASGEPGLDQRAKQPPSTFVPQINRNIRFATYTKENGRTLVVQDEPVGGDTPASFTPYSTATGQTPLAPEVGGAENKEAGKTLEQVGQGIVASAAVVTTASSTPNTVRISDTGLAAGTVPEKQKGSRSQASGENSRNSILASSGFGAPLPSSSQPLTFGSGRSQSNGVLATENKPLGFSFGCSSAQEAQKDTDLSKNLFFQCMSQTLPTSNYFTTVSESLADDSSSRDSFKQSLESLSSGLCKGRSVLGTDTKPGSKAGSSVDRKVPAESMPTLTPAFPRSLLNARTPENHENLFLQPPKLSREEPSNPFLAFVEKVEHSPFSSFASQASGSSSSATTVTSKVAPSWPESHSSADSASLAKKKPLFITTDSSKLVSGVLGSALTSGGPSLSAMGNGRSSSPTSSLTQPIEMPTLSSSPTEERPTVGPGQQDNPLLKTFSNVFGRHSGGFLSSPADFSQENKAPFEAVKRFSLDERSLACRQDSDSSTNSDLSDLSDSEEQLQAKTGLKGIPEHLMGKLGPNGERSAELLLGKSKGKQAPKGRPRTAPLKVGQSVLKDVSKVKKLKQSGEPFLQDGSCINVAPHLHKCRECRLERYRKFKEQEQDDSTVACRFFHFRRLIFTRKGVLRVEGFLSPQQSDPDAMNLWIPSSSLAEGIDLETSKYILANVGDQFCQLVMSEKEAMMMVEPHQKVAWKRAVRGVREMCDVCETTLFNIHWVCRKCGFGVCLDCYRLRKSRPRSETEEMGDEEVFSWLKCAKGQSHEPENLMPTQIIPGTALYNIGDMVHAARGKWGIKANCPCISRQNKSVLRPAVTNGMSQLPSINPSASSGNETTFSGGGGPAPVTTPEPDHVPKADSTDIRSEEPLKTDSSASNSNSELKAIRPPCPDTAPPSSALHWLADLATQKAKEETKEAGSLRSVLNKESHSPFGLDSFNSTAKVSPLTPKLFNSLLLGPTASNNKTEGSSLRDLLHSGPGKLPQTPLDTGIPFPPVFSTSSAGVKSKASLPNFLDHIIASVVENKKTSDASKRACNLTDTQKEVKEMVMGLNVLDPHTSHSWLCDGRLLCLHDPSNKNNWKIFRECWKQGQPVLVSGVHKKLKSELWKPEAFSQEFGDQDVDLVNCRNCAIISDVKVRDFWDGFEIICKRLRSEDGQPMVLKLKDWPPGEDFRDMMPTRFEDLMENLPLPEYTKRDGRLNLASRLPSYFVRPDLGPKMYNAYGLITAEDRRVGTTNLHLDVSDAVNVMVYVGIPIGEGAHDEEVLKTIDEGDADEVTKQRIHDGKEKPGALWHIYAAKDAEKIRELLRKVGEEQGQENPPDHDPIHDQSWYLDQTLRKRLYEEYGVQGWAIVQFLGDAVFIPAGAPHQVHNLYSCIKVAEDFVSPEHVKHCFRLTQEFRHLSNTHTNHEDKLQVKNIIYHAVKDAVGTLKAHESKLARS

[5] = target: Lysine-specific demethylase 6B (Homo sapiens, UniProt O15054); experiment: Inhibition of KDM6B (unknown origin) using biotinylated H3K27me3 peptide and alpha-ketoglutarate as substrate pretreated for 1 hr followed by substrate addition measured after 20 mins by LANCE TR-FRET assay
Sequence of Lysine-specific demethylase 6B (O15054 whole entry): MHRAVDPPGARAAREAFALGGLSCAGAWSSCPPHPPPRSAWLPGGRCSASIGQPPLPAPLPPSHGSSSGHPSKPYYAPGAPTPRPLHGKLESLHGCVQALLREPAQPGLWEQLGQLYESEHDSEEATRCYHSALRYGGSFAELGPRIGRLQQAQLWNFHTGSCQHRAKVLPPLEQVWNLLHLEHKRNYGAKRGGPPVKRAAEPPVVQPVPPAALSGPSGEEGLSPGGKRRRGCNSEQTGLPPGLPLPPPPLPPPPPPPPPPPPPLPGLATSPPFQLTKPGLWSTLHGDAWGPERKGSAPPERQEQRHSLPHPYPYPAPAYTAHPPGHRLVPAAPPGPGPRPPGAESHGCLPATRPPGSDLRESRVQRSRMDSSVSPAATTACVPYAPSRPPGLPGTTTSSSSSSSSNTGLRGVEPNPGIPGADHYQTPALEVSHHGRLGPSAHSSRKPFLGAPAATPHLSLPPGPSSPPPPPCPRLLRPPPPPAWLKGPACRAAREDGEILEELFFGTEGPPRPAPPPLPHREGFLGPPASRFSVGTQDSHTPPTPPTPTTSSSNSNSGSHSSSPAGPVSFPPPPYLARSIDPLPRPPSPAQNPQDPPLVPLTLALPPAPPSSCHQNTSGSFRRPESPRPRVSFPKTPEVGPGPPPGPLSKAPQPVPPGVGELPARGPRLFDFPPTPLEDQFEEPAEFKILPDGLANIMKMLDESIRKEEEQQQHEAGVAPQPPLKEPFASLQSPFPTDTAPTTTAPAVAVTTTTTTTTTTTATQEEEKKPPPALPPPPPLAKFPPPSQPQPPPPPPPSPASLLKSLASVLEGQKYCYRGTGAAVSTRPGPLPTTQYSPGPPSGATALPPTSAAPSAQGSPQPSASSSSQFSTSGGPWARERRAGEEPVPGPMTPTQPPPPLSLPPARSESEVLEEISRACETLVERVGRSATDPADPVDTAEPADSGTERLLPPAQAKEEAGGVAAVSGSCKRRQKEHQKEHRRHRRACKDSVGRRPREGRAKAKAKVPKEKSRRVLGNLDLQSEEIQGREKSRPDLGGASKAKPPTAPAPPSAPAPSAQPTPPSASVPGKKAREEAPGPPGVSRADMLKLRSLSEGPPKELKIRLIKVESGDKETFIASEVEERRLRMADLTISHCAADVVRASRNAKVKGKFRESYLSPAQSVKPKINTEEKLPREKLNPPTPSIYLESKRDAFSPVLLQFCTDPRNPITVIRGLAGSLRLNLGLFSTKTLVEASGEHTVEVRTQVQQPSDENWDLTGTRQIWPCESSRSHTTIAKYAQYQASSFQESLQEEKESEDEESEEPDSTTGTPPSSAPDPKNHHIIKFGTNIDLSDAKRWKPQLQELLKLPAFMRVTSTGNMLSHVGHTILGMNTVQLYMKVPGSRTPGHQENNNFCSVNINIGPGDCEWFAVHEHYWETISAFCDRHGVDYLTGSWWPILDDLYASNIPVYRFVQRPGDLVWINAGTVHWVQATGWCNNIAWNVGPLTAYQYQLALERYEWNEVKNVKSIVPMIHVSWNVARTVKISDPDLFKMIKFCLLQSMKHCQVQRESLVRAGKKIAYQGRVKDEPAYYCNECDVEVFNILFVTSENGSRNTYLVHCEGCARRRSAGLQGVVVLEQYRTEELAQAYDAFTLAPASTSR

[6] = target: Histone lysine demethylase PHF8 (Homo sapiens, UniProt Q9UPP1); experiment: Inhibition of PHF8 (unknown origin) using biotinylated H3K9me1 peptide and alpha-ketoglutarate as substrate measured after 20 mins by LANCE TR-FRET assay
Sequence of Histone lysine demethylase PHF8 (Q9UPP1 whole entry): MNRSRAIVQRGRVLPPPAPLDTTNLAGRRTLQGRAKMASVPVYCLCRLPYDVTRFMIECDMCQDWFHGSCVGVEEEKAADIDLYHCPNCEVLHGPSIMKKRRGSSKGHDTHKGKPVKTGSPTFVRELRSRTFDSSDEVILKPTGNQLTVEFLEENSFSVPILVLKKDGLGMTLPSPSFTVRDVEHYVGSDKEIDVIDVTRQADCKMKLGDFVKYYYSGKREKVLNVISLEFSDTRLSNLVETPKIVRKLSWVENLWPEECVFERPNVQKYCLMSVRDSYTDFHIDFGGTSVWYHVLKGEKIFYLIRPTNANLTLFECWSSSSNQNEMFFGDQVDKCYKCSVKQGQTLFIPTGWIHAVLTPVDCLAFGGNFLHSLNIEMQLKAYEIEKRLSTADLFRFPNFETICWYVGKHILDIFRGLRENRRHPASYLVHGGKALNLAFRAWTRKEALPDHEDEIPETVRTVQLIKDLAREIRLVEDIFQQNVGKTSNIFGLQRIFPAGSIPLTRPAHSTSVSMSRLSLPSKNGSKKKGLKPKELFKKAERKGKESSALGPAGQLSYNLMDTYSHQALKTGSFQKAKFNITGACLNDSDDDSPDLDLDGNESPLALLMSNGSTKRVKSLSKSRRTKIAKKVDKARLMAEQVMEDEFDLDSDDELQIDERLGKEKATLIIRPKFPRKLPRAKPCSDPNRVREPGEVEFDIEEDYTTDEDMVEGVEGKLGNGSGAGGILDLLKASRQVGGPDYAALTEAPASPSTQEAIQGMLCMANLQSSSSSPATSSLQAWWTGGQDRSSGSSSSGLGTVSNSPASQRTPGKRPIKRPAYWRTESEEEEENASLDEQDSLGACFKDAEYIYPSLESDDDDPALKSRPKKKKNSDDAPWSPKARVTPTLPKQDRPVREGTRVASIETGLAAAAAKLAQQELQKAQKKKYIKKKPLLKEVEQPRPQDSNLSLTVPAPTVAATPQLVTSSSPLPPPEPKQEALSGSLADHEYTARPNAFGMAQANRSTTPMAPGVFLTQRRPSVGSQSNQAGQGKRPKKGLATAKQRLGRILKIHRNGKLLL

[7] = Systemic clearance in CD-1 mouse at 5 mg/kg, iv; assay type: ADME, organism-based; details: in vivo
[8] = Volume of distribution in CD-1 mouse at 5 mg/kg, iv; assay type: ADME, organism-based; details: in vivo
[9] = AUC in CD-1 mouse at 10 mg/kg, po; assay type: ADME, organism-based; details: in vivo
[10] = Oral bioavailability in CD-1 mouse at 10 mg/kg; assay type: ADME, organism-based; details: in vivo
[11] = target: T1, Lysine-specific demethylase 4C; experiment: Inhibition of full-length KDM4C (unknown origin) expressed in human KYSE-150 cells assessed as increase in H3K36me3 level after 24 hrs by HTRF assay
[12] = target: T1, Lysine-specific demethylase 4C; experiment: Inhibition of KDM4C (unknown origin) using biotinylated H3K9me3 peptide and alpha-ketoglutarate as substrate pretreated for 1 hr followed by substrate addition measured after 20 mins in presence of 0.2 mg/ml BSA by LANCE TR-FRET assay
[13] = target: Lysine-specific histone demethylase 1A (Homo sapiens) (UniProt O60341); experiment: Inhibition of KDM1 in human KYSE-150 cells assessed as increase in H3K4me2 level at higher concentration after 24 hrs by UHPLC-MS/MS analysis; assay type: cell-based
[14] = species on record: Homo sapiens; experiment: Inhibition of KDM5 in human KYSE-150 cells assessed as increase in H3K4me3 level at higher concentration after 24 hrs by UHPLC-MS/MS analysis; assay type: cell-based
[15] = species on record: Homo sapiens; experiment: Inhibition of KDM6 in human KYSE-150 cells assessed as increase in H3K27me3 level at higher concentration after 24 to 96 hrs by UHPLC-MS/MS analysis; assay type: cell-based
[16] = system: IMR-90; experiment: Cytotoxicity against human IMR90 cells; assay type: cell-based
[17] = Permeability of the compound by PAMPA; assay type: ADME; details: read-out: permeability
[18] = system: KYSE-150 cell line; experiment: cells; details: Homo sapiens, KYSE-150, 168 h
Description: Antiproliferative activity against human KYSE-150 cells after 168 hrs by 5-bromo-2'-deoxyuridine thymidine incorporation assay

[19] = target: T4, Lysine-specific demethylase 4C (Homo sapiens) (UniProt Q9H3R0); experiment: Inhibition of full-length KDM4C (unknown origin) expressed in human KYSE-150 cells assessed as increase in H3K36me3 level after 24 hrs by HTRF assay
T4 sequence (whole entry): T1 sequence (Q9H3R0 whole entry)

Compound: O=C(O)c1ccncc1NC[C@@H]1CCCc2cc(Sc3ccccc3)ccc21
IC50 [12]: 0.048 µM
EC50 [11]: 0.019 µM

Compound: COc1ccc2c(c1)CCC[C@H]2CNc1cnccc1C(=O)O
IC50 [12]: 0.006 µM
inhibition [13]: Below limit of detection
inhibition [14]: Below limit of detection
inhibition [15]: Active
EC50 [16]: > 30 µM
Papp [17]: 1.84 ×10⁻⁶ cm/s
EC50 [18]: 0.83 µM
inhibition [19]: Dose-dependent effect
EC50 [11]: 0.56 µM

Compound: O=C(O)c1ccncc1NC[C@@H]1CCCc2ccccc21
IC50 [12]: 0.008 µM
EC50 [18]: 4 µM

Compound: O=C(O)c1ccncc1NC[C@H]1CCCc2ccccc21
IC50 [12]: > 2 µM
EC50 [18]: > 100 µM
inhibition [19]: inactive

Other lines, results leading:

IC50 [1]: 0.009 µM
IC50 [2]: > 4 µM
IC50 [3]: > 4 µM
IC50 [4]: > 4 µM
IC50 [5]: > 4 µM
IC50 [6]: > 4 µM
clearance [7]: 6.9 mL/min/kg
Vd [8]: 0.675 L/kg
AUC [9]: 10400 ng·h/mL
bioavailability [10]: 30%
EC50 [11]: 0.0013 µM
Compound: CN(c1ccccc1)c1ccc2c(c1)CCC[C@H]2CNc1cnccc1C(=O)O

IC50 [12]: 0.012 µM
EC50 [18]: 6 µM
Compound: O=C(O)c1ccncc1NCC1CCCc2ccccc21 (centres undefined)
